Measured values reported in patent US20200045962A1, “METHOD FOR PREPARING SURFACTANT COMPOSITIONS COMPRISING ALKYL LIDURONAMIDES D-GLUCURONAMIDES AND L-RHAMNOSIDES FROM ULVANS” (ÉCOLE NATIONALE SUPÉRIEURE DE CHIMIE, priority 2016, published 2020).

Legend:
Test in all cases: Protocol A: diffusion on agar in Petri dishes
Type in all cases: cell-based
Escherichia coli = tested on: Escherichia coli
Protocol: (§1) The culture medium used was a mixture of 21 g/L of Muller-Hinton broth and 10 g/L of agar in water. This mixture was stirred and then left to boil. Next, a step of autoclaving of this mixture for 30 minutes was necessary in order to sterilize it before any manipulation. This culture medium was poured, while hot, into Petri dishes and then left to cool.
(§2) 5 milligrams of RhamOC4 were dissolved in 1 mL of DMSO. Twofold serial dilution with DMSO was then performed starting with the stock solution, so as to obtain the concentrations 2.5 g·L^−1, 1.25 g·L^−1, 0.625 g·L^−1 and 0.3125 g·L^−1.
(§3) The bacterial strains used were Pseudomonas aeruginosa, Escherichia coli, Enterococcus faecium and Staphylococcus aureus, in addition to the fungal strain Candida albicans. 10^6 bacteria were collected and then transferred into a 0.9% NaCl solution. Each Petri dish, containing the Muller-Hinton medium, was inoculated with a different bacterial suspension.
(§4) After having left the bacterial suspensions to dry on the agar, 10 μL of the test solution (RhamOC4), at various concentrations, were deposited on the surface of the agar inoculated with the bacterial suspension. 10 μL of DMSO were placed in each Petri dish as negative control.
(§5) The positive controls used were discs soaked with ampicillin for Escherichia coli and Enterococcus faecium, ceftazidim discs for Pseudomonas aeruginosa and vancomycin discs for Staphylococcus aureus.
(§6) After drying, the Petri dishes were finally incubated at 37° C. in an oven for 24 hours. The antibacterial activity was evaluated by measuring the clarification zone in mm around the place of deposition of the various concentrations of the test RhamOC4 solution.

Enterococcus faecium = tested on: Enterococcus faecium
Protocol: as §1, §2, §3, §4, §5, §6

Pseudomonas aeruginosa = tested on: Pseudomonas aeruginosa
Protocol: as §1, §2, §3, §4, §5, §6

Staphylococcus aureus = tested on: Staphylococcus aureus
Protocol: as §1, §2, §3, §4, §5, §6

Candida albicans = tested on: Candida albicans
Protocol: as §1, §2, §3, §4, §6

[1] = antibiotic disc, concentration not given

`CC1(C)S[C@@H]2[C@H](NC(=O)[C@H](N)c3ccccc3)C(=O)N2[C@H]1C(=O)O` [Ampicillin, ampicillin, reference compound] was tested, and the “Clarification zone, E. coli, positive control” value (Escherichia coli; [1]) was “(22 mm)” and the “Clarification zone, E. faecium, positive control” value (Enterococcus faecium; [1]) was “(26 mm)”.
`CCCCO[C@@H]1O[C@@H](C)[C@H](O)[C@@H](O)[C@H]1O` [RhamOC4, n-butyl α-L-rhamnopyranoside] gave a zone of inhibition at 0.3125 mg/mL (Escherichia coli; Escherichia coli, 0.3125 mg·mL^−1, 10 μL, 24 hours 37° C., read-out: Clarification zone, E. coli) of 0 mm, a zone of inhibition at 0.625 mg/mL (Escherichia coli; Escherichia coli, 0.625 mg·mL^−1, 10 μL, 24 hours 37° C., read-out: Clarification zone, E. coli) of 0 mm and a zone of inhibition at 1.25 mg/mL (Escherichia coli; Escherichia coli, 1.25 mg·mL^−1, 10 μL, 24 hours 37° C., read-out: Clarification zone, E. coli) of 0 mm. The zone of inhibition at 2.5 mg/mL (Escherichia coli; Escherichia coli, 2.5 mg·mL^−1, 10 μL, 24 hours 37° C., read-out: Clarification zone, E. coli) was 4 mm, the zone of inhibition at 5 mg/mL (Escherichia coli; Escherichia coli, 5 mg·mL^−1, 10 μL, 24 hours 37° C., read-out: Clarification zone, E. coli) was 9 mm and the zone of inhibition at 0.3125 mg/mL (Pseudomonas aeruginosa; Pseudomonas aeruginosa, 0.3125 mg·mL^−1, 10 μL, 24 hours 37° C., read-out: Clarification zone, P. aeruginosa) was 0 mm. For the same compound, the zone of inhibition at 0.625 mg/mL (Pseudomonas aeruginosa; Pseudomonas aeruginosa, 0.625 mg·mL^−1, 10 μL, 24 hours 37° C., read-out: Clarification zone, P. aeruginosa) was 0 mm, the zone of inhibition at 1.25 mg/mL (Pseudomonas aeruginosa; Pseudomonas aeruginosa, 1.25 mg·mL^−1, 10 μL, 24 hours 37° C., read-out: Clarification zone, P. aeruginosa) was 0 mm and the zone of inhibition at 2.5 mg/mL (Pseudomonas aeruginosa; Pseudomonas aeruginosa, 2.5 mg·mL^−1, 10 μL, 24 hours 37° C., read-out: Clarification zone, P. aeruginosa) was 0 mm. The zone of inhibition at 5 mg/mL (Pseudomonas aeruginosa; Pseudomonas aeruginosa, 5 mg·mL^−1, 10 μL, 24 hours 37° C., read-out: Clarification zone, P. aeruginosa) was 4 mm, the “Inhibitory power on growth of Pseudomonas aeruginosa” value (Pseudomonas aeruginosa; summary of agar diffusion) was “poor inhibitory power” and the zone of inhibition at 0.3125 mg/mL (Enterococcus faecium; Enterococcus faecium, 0.3125 mg·mL^−1, 10 μL, 24 hours 37° C., read-out: Clarification zone, E. faecium) was 0 mm. The zone of inhibition at 0.625 mg/mL (Enterococcus faecium; Enterococcus faecium, 0.625 mg·mL^−1, 10 μL, 24 hours 37° C., read-out: Clarification zone, E. faecium) was 0 mm, the zone of inhibition at 1.25 mg/mL (Enterococcus faecium; Enterococcus faecium, 1.25 mg·mL^−1, 10 μL, 24 hours 37° C., read-out: Clarification zone, E. faecium) was 0 mm and the zone of inhibition at 2.5 mg/mL (Enterococcus faecium; Enterococcus faecium, 2.5 mg·mL^−1, 10 μL, 24 hours 37° C., read-out: Clarification zone, E. faecium) was 4 mm. For the same compound, the zone of inhibition at 5 µg/mL (Enterococcus faecium; Enterococcus faecium, 5 mg·mL^−1, 10 μL, 24 hours 37° C., read-out: Clarification zone, E. faecium) was 6 mm, the zone of inhibition at 0.3125 mg/mL (Staphylococcus aureus; Staphylococcus aureus, 0.3125 mg·mL^−1, 10 μL, 24 hours 37° C., read-out: Clarification zone, S. aureus) was 0 mm and the zone of inhibition at 0.625 mg/mL (Staphylococcus aureus; Staphylococcus aureus, 0.625 mg·mL^−1, 10 μL, 24 hours 37° C., read-out: Clarification zone, S. aureus) was 0 mm. For the same compound, the zone of inhibition at 1.25 mg/mL (Staphylococcus aureus; Staphylococcus aureus, 1.25 mg·mL^−1, 10 μL, 24 hours 37° C., read-out: Clarification zone, S. aureus) was 5 mm, the zone of inhibition at 2.5 mg/mL (Staphylococcus aureus; Staphylococcus aureus, 2.5 mg·mL^−1, 10 μL, 24 hours 37° C., read-out: Clarification zone, S. aureus) was 5 mm and the zone of inhibition at 5 mg/mL (Staphylococcus aureus; Staphylococcus aureus, 5 mg·mL^−1, 10 μL, 24 hours 37° C., read-out: Clarification zone, S. aureus) was 10.5 mm. The “Capacity to inhibit growth of Staphylococcus aureus” value (Staphylococcus aureus; summary of agar diffusion) was “very good capacity to inhibit the growth”, the zone of inhibition at 0.3125 mg/mL (Candida albicans; Candida albicans, 0.3125 mg·mL^−1, 10 μL, 24 hours 37° C., read-out: Clarification zone, C. albicans) was 0 mm and the zone of inhibition at 0.625 mg/mL (Candida albicans; Candida albicans, 0.625 mg·mL^−1, 10 μL, 24 hours 37° C., read-out: Clarification zone, C. albicans) was 0 mm. It also gave a zone of inhibition at 1.25 mg/mL (Candida albicans; Candida albicans, 1.25 mg·mL^−1, 10 μL, 24 hours 37° C., read-out: Clarification zone, C. albicans) of 5 mm, a zone of inhibition at 2.5 mg/mL (Candida albicans; Candida albicans, 2.5 mg·mL^−1, 10 μL, 24 hours 37° C., read-out: Clarification zone, C. albicans) of 14 mm and a zone of inhibition at 5 mg/mL (Candida albicans; Candida albicans, 5 mg·mL^−1, 10 μL, 24 hours 37° C., read-out: Clarification zone, C. albicans) of 18 mm. The “Capacity to inhibit growth of Candida albicans” value (Candida albicans; summary of agar diffusion) was “very good capacity to inhibit the growth”.
With `CN[C@H](CC(C)C)C(=O)N[C@H]1C(=O)N[C@@H](CC(N)=O)C(=O)N[C@H]2C(=O)N[C@H]3C(=O)N[C@H](C(=O)N[C@H](C(=O)O)c4cc(O)cc(O)c4-c4cc3ccc4O)[C@H](O)c3ccc(c(Cl)c3)Oc3cc2cc(c3O[C@@H]2O[C@H](CO)[C@@H](O)[C@H](O)[C@H]2O[C@H]2C[C@](C)(N)[C@H](O)[C@H](C)O2)Oc2ccc(cc2Cl)[C@H]1O` [Vancomycin, vancomycin, reference compound] the “Clarification zone, S. aureus, positive control” value (Staphylococcus aureus; [1]) was “(19 mm)”.
`CC(C)(O/N=C(\C(=O)N[C@@H]1C(=O)N2C(C(=O)[O-])=C(C[n+]3ccccc3)CS[C@H]12)c1csc(N)n1)C(=O)O` [Ceftazidim, ceftazidim, reference compound] was tested, and the “Clarification zone, P. aeruginosa, positive control” value (Pseudomonas aeruginosa; [1]) was “(28 mm)”.
